# Measurements: the NIST ThermoML archive (doi:10.1016/j.jct.2017.07.009)
# Conditions: 1410 K; Crystal; Calculated from knudsen effusion weight loss
structure (smiles),measurement,value
[O-2].[Zn+2] [zinc(II) oxide],vapor or sublimation pressure,0.00842 kPa
